Measured values reported in ChEMBL document CHEMBL3774335, “Tactical Approaches to Interconverting GPCR Agonists and Antagonists” (J Med Chem, 2016).

Experiments:
B2 bradykinin receptor = target: T1, B2 bradykinin receptor (Homo sapiens, UniProt P30411); assay: Displacement of [3H]BK from cloned human B2 bradykinin receptor expressed in CHO cells after 2 hrs by liquid scintillation counter; format: cell-based
T1 sequence (P30411 whole entry): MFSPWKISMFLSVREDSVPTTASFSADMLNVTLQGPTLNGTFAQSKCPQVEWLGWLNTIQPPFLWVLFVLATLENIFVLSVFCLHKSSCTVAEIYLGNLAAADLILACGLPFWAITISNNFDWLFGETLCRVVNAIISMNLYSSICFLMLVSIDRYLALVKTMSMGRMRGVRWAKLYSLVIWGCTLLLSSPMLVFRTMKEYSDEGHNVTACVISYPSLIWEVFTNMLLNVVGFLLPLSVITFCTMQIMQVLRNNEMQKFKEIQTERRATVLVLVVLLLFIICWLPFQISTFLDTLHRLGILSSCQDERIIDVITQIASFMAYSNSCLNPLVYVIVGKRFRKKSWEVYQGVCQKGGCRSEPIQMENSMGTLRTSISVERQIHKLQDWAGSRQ

[1] = Displacement of 125I-[Sar1, Ile8] AngII from rat AT1 receptor expressed in COS1 cells; format: cell-based; settings: cos-1
Vasopressin V2 receptor = Vasopressin V2 receptor (Homo sapiens, UniProt P30518); assay: Displacement of [3H]AVP from human Vasopressin V2 receptor expressed in HeLa cells after 2 hrs by liquid scintillation counter; format: cell-based
[2] = target: T2, Type-2 angiotensin II receptor (Homo sapiens, UniProt P50052); assay: Binding affinity to angiotensin II receptor (unknown origin)
T2 sequence (P50052 whole entry): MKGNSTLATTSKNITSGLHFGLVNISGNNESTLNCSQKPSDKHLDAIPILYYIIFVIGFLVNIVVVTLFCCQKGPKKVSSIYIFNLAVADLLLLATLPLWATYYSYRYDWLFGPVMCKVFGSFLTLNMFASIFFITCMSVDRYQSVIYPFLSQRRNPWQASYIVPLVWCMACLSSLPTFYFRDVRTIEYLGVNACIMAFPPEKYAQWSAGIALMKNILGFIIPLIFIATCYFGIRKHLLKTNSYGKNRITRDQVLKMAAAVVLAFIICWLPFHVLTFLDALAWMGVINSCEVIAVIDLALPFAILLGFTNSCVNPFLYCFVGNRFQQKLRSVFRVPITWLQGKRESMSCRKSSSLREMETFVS

Melanocortin receptor 4 = Melanocortin receptor 4 (Homo sapiens, UniProt P32245); assay: Displacement of 125I-NDP-a-MSH from human Melanocortin receptor 4 after 2 hrs by TopCount microplate scintillation and luminescence counter
[3] = target: Histamine H3 receptor (Homo sapiens) (UniProt Q9Y5N1); assay: Inverse agonist activity at human histamine H3 receptor expressed in SK-N-MC cells by beta-galactosidase reporter gene assay relative to histamine; format: cell-based
[4] = target: Histamine H3 receptor (Homo sapiens) (UniProt Q9Y5N1); assay: Partial agonist activity at human histamine H3 receptor expressed in SK-N-MC cells by beta-galactosidase reporter gene assay relative to histamine; format: cell-based

Chain of Histamine H3 receptor (Homo sapiens) (Q9Y5N1 whole entry): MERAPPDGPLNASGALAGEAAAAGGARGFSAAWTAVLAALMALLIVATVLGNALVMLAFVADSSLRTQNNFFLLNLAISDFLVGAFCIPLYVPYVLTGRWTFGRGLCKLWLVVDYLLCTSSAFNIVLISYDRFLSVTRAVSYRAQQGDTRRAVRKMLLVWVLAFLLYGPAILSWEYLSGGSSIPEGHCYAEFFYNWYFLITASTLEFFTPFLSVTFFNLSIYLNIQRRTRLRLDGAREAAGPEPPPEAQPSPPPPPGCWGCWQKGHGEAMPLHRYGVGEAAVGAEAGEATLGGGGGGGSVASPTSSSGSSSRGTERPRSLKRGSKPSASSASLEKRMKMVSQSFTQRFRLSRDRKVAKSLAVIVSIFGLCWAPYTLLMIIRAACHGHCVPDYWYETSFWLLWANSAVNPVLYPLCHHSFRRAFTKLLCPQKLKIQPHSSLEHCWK
Chain of Melanocortin receptor 4 (P32245 whole entry): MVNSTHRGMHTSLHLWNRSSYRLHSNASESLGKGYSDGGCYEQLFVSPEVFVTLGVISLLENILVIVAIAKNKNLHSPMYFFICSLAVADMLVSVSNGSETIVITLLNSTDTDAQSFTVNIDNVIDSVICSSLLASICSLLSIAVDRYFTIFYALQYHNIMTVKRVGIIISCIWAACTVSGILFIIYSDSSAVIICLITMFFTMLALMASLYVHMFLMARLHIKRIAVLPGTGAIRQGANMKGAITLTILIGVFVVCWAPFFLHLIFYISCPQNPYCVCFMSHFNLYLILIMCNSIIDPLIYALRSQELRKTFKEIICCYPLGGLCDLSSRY
Chain of Vasopressin V2 receptor (P30518 whole entry): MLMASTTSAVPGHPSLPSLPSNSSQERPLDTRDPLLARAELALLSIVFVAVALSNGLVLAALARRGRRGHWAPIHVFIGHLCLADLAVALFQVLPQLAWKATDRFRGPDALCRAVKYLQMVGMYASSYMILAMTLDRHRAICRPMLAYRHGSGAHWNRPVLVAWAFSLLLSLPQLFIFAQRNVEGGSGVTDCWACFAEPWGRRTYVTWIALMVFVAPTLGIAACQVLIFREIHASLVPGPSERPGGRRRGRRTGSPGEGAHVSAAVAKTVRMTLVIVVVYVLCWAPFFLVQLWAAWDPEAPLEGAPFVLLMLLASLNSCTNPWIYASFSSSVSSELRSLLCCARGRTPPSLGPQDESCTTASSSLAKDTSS

SMILES: Cc1cc(OCc2ccccn2)c2cccc(OCc3c(Cl)ccc(N(C)C(=O)CNC(=O)/C=C/c4ccc(/C=C/c5ccncc5)nc4)c3Cl)c2n1
- IC50 (B2 bradykinin receptor): 0.36 nM

SMILES: CCCc1nc(C(C)(C)O)c(C(=O)O)n1Cc1ccc(-c2ccccc2-c2nnn[nH]2)cc1 [OLMESARTAN]
- Kd [1]: 2.3 nM

SMILES: Cc1cc(N)ccc1C(=O)N1CCCCc2cc(Cl)ccc21
- IC50 (Vasopressin V2 receptor): 18 nM

SMILES: CCCCOC(=O)NS(=O)(=O)c1ccc(CC(C)C)cc1-c1ccc(Cn2c(CC)nc3c(C)cc(C)nc32)cc1
- Ki [2]: 2.1 nM

SMILES: CCN(C(C)=O)C(C)c1ccccc1N1CCN(C(=O)[C@H](CC(=O)NC2CCC2)Cc2ccc(Cl)cc2)CC1 (stereo partly drawn)
- Ki (Melanocortin receptor 4): 6 nM

SMILES: CCCc1nc(C(C)(C)O)c(C(N)=O)n1Cc1ccc(-c2ccccc2-c2nnn[nH]2)cc1
- Kd [1]: 0.8 nM

SMILES: CCCCOC(=O)NS(=O)(=O)c1ccc(CCC)cc1-c1ccc(Cn2c(CC)nc3c(C)cc(C)nc32)cc1
- Ki [2]: 1.5 nM

SMILES: c1nc(CCCC2CCCNC2)c[nH]1 (stereo not drawn)
- Intrinsic activity [3]: 29%

SMILES: CCCc1nc(C(C)(C)O)c(C(=O)O)n1Cc1ccc(-c2cc(Cc3ccc(O)cc3)ccc2-c2nnn[nH]2)cc1
- Kd [1]: 21 nM

SMILES: CCN(C(C)=O)C(C)c1ccccc1N1CCN(C(=O)[C@H](CC(=O)N2CCN(C(=O)OC(C)(C)C)CC2)Cc2ccc(Cl)cc2)CC1 (stereo partly drawn)
- Ki (Melanocortin receptor 4): 2 nM

SMILES: CCCc1nc(C(C)(C)O)c(C(N)=O)n1Cc1ccc(-c2cc(Cc3ccc(O)cc3)ccc2-c2nnn[nH]2)cc1
- Kd [1]: 48 nM

SMILES: c1nc(CCC2CCNCC2)c[nH]1
- Intrinsic activity [4]: 60%

SMILES: c1nc(CCC2CCCNC2)c[nH]1 (stereo not drawn)
- Intrinsic activity [4]: 34%
